Where two headings read alike, the source gives them in different places.
Experiments:
[1] = cited from earlier work
[2] = test system: HCT116 human colon carcinoma cells; experiment: XTT cytotoxicity assay in HCT116 human colon carcinoma cells; assay type: cell-based; conditions: read-out: Cytotoxicity Assay IC50 against HCT 116 Human colon tumor cell line
Experimental: Cytotoxicity was assessed in HCT116 human colon carcinoma cells by XTT (2,3-bis(2-methoxy-4-nitro-5-sulfophenyl)-5-[(phenylamino)carbonyl]-2H-tetrazolium hydroxide assay (1). Cells were plated at 4000 cells/well in 96 well microtiter plates and 24 hrs later drugs were added and serial diluted. The cells were incubated at 37° C. for 72 hrs at which time the tetrazolium dye, XTT, containing phenazine methosulfate was added. A dehydrogenase enzyme in live cells reduces the XTT to a form that absorbs light at 450 nm which can be quantitated spectrophotometrically. The greater the absorbance the greater the number of live cells. The results are expressed as an IC50 which is the drug concentration required to inhibit cell proliferation (i.e. absorbance at 450 nm) to 50% of that of untreated control cells.
The IC50 values for compounds evaluated in this assay are contained in Table I.

M109 lung carcinoma = experiment: Mice M109 model, advanced distal site antitumor IV testing; assay type: in vivo, Balb/c×DBA 2 F1 (CDF1) hybrid mice; conditions: for Maximum Effect T-C days (delay of median time to grow tumor to 1 gm): intravenous, once daily on days 4-8 post-tumor implant, sc tumor
Experimental: Mice M109 Model (In-Vivo Activity)
Balb/c×DBA 2 F1 (CDF1) hybrid mice were implanted subcutaneously (sc) with 0.1 mL of a 2% (w/v) brei of M109 lung carcinoma (as described by William Rose in Evaluation of Madison 109 Lung Carcinoma as a Model for Screening Antitumor Drugs, Cancer Treatment Reports, 65, No. 3-4 (1981)).
The test compounds and reference drug, paclitaxel, were administered intravenously to groups of mice; each group received a compound at a different dose level, and three or four different dose levels were evaluated per compound. Mice were treated with compounds intravenously, once daily, on days 4, 5, 6, 7, and 8 post-tumor implant. Mice were followed daily for survival until their death or approximately 60-90 days post-tumor implant whichever occurred first. One group of mice per experiment remained untreated and served as the primary control group; a secondary control group was typically included and received 1/10th the tumor inocula of all the other groups of mice (i.e., 0.1 ml of a 0.2% (w/v) brei of M109 lung carcinoma). Tumors were also measured once or, more often, twice weekly to estimate the tumor weight according to the published procedure (ibid).
Median survival times of compound-treated (T) mice were compared to the median survival time of the control (C) mice. The ratio of the two values for each compound-treated group of mice was multiplied by 100 and expressed as a percentage (i.e. % T/C) in the following Table II for representative compounds. Additionally, the difference between the median time for treated groups and that for the control group to grow tumor to 1 gm, expressed as T-C values in days, is also shown in the following table. The greater the T-C value, the greater the delay in primary tumor growth. […] When the difference in the time to grow 1 gm tumors in both primary and secondary control groups is greater than 4 days, that difference becomes the criterion for activity.
Advanced Distal Site Antitumor IV Testing of Paclitaxel Derivatives

[3] = HCT-116, XTT, 72 hrs incubation at 37° C.

CC(=O)O[C@H]1C(=O)[C@@]2(C)[C@H]([C@H](OC(=O)c3ccccc3)[C@]3(O)C[C@H](OC(=O)[C@H](O)[C@@H](NC(=O)c4ccccc4)c4ccccc4)C(C)=C1C3(C)C)[C@]1(OC(C)=O)CO[C@@H]1C[C@@H]2O [paclitaxel]
antitumor activity in in vivo animal models, in words [1]: excellent antitumor activity | IC50 [2, 3]: 4.9 to 5.9 nM

CC(=O)O[C@H]1C(=O)[C@]2(C)[C@@H](OCS(C)(=O)=O)C[C@H]3OC[C@@]3(OC(C)=O)[C@H]2[C@H](OC(=O)c2ccccc2)[C@]2(O)C[C@H](OC(=O)[C@H](O)[C@@H](NC(=O)c3ccccc3)c3ccccc3)C(C)=C1C2(C)C [4 (Example 2)]
IC50 [2, 3]: 2.8 nM

CC(=O)O[C@H]1C(=O)[C@]2(C)[C@@H](OC[S+](C)[O-])C[C@H]3OC[C@@]3(OC(C)=O)[C@H]2[C@H](OC(=O)c2ccccc2)[C@]2(O)C[C@H](OC(=O)[C@H](O)[C@@H](NC(=O)c3ccccc3)c3ccccc3)C(C)=C1C2(C)C (some centres unmarked) [2 & 3 (Example 1)]
IC50 ([2]; HCT-116, 72 h): 13 nM

CC(=O)O[C@H]1C(=O)[C@]2(C)[C@@H](OC[S+](C)[O-])C[C@H]3OC[C@@]3(OC(C)=O)[C@H]2[C@H](OC(=O)c2ccccc2)[C@]2(O)C[C@H](OC(=O)[C@H](O)[C@@H](NC(=O)c3ccccc3)c3ccccc3)C(C)=C1C2(C)C (some centres unmarked)
Maximum Effect % T/C (median survival time, treated vs control) (M109 lung carcinoma; 15 mg/kg): 141% | Maximum Effect % T/C (median survival time, treated vs control) (M109 lung carcinoma; 25 mg/kg): 129% | Maximum Effect T-C days (delay of median time to grow tumor to 1 gm) (M109 lung carcinoma; Opt. dose 15 mg/kg/inj): 9.0 days | Maximum Effect T-C days (delay of median time to grow tumor to 1 gm) (M109 lung carcinoma; Opt. dose 25 mg/kg/inj): 10.0 days

From patent US5902822A, “7-methylthiooxomethyl and 7-methylthiodioxomethyl paclitaxels” (Bristol-Myers Squibb Company, priority 1998, dated 1999)
